“Also recorded” adds a separate entry of the source.
Key:
HRF/IgE binding = test: Competition ELISA of IgE binding to GST-mHRF-coated wells; design: species or system mouse
Description: (§1) To identify an inhibitor of HRF/Ig interactions to dissect the extracellular function (═HRF function as a cytokine) separate from the intracellular functions in vivo settings, the major Ig-interacting HRF sequence was studied as a specific inhibitor of HRF/Ig interactions. IgE molecules were incubated in GST-mHRF-coated wells in the presence or absence (−) of the indicated concentrations of competitors, GST-N19, GST-mHRF or mHRF-His6 for 2 hours. After incubation, bound-IgE was detected by incubation with biotinylated anti-mouse IgE mAb, followed by streptavidin-HRP. […] By contrast, none of the shorter mHRF peptides tested (residues 1-6, 1-12, 5-19, and 9-19) inhibited HRF/IgE binding. GST-N19 inhibited HRF/IgG binding as well.

HRF/IgG binding = test: Inhibition of HRF/IgG binding; design: species or system mouse
Description: as §1

[1] = test system: CHO-K1 (Chinese hamster ovary cell); settings: CHO-K1, 3.6 or 36 μM, 2 days
Description: (§2) To analyze the effect of GST-N19 on intracellular functions of HRF/TCTP, the indicated cells were cultured in the absence (−) or presence of the indicated concentrations of GST or GST-N19 for 2 days, and live cells were counted in the presence of Trypan blue. […] The usual dose of HRF to stimulate basophils is 1.6-5 μM (Langdon, et al., J Leukoc Biol 84, 1151 (October, 2008)). Apoptosis was induced by growth factor withdrawal, IL-3 depletion, in BMMCs for 3 days and by 800 nM H2O2 in CHO-K1 cells for 2 days, and live cells were counted.

CHO-K1 cells = settings: 800 nM H2O2, 2 days
Description: as §2

BMMCs = type: cell-based, mouse
WT mice = test: IgE/antigen-induced PCA with GST-N19 ear injection; type: in vivo, mouse
Description: Mouse ears were first sensitized with 0.5 μg anti-TNP (C38-2 in the right ear and C48-2 in the left ear) IgE. After 24 hours, Evans' blue dye was intravenously (i.v.) injected, and TNP26-BSA (Ag: 0.1 μg) or mHRF-His6 (10 μg) were immediately injected into the ears. The acute (30 minute) reactions were analyzed by measurement of Evans' blue dye leakage. The ear thickness was measured using a micrometer (Mitutoyo) at 0.5, 1, 2, 4, 6, 8, 12, and 24 hours after mHRF-His6challenge. As a negative control, saline was injected into the ears in place of antigen or HRF challenge. IgG-mediated response was performed by sensitization with 2 μg IgG1 (in place of anti-TNP IgE) and challenge with anti-mouse IgG1 Ab (0.6 μg: Southern Biotechnology, in place of TNP26-BSA). Engraftmanet of Kit^W-sh/W-sh mice with BMMCs was performed 6 weeks before study (Nakano, T., et al. J Exp Med 162:1025-1043 (1985)). In some studies, mice were sensitized and stimulated as described above but without Evans blue.
To study HRFs involvement in IgE/antigen-induced PCA reactions, WT mice were overnight sensitized the IgE. Left ears were injected with GST and the right ears were injected with GST-N19, and then TNP26-BSA were injected in both ears. Ear thickness was measured over a 10 hour period. *, **, ***: p<0.05, p<0.01, p<0.001 by Student's t-test. […]

C57BL/6 mice = test: OVA-induced mast cell-dependent airway inflammation model; type: in vivo, mouse
Description: Mice were sensitized with OVA (10 μg in 0.1 ml saline) at days 0, 7, 14, 21, 28, and 35. Sensitized mice were challenged with OVA (20 μg in 20 μl saline) at days 40, 43 and 46. Some mice were pretreated with GST, GST-N19 (400 μg in PBS), or N19 peptide (40 μg in 2% DMSO-containing PBS) 15 minutes before OVA challenge. Twenty-four hours after the last challenge, lung function in response to methacholine was tested using FlexiVent system (SCIREQ Scientific Respiratory Equipment). Mice were sacrificed and plasma, BAL fluids, and lung tissues were collected. Cells in BAL fluids were counted, and specific cell numbers were calculated after May-Giemsa staining of Cytospin preparations. Immunofluorescence microscopy was performed on membrane-permeabilized and non-permeabilized lung tissues. For staining of lung tissues by staining of H&E and periodic acid-Schiff (PAS), lung tissues were fixed with formalin and embedded in paraffin. For measurement of cytokine levels in lung tissues, lung homogenates were prepared (Oyoshi et al., Immunol. 120:303 (2007)) and cytokines quantified by ELISA. HRF in lung homogenates and plasma was SDS-PAGE and immunoblotting with anti-HRF Ab (Santa Cruz Biotechnology).
Asthma is a type 2 helper T cell-driven, chronic inflammatory lung disease (Wills-Karp, Annu Rev Immunol 17, 255 (1999)). To study HRF involvement in allergic airway inflammation, an airway inflammation model was utilized, in which mast cells are implicated in amplifying antigen-dependent chronic inflammation (Williams, et al., J Exp Med 192, 455 (Aug. 7, 2000)). C57BL/6 mice were first sensitized with OVA (10 μg) at days 0, 7, 14, 21, 28 and 35. At days 40, 43 and 46, mice were intranasally challenged with OVA (20 μg) or PBS. Some mice were intranasally pretreated with GST or GST-N19 (400 μg) before every OVA challenge. Twenty-four hours after the last challenge, mice were sacrificed and BAL fluids and lung tissues were collected. Lung tissues were homogenized.

mice = test: T cell-dependent/mast cell-independent airway inflammation model (OVA with alum); type: in vivo, mouse; settings: mice immunized with OVA with alum and challenged with OVA
BALB/c mice = test: Aspergillus fumigatus allergen-induced airway inflammation model; type: in vivo, mouse; settings: intranasal 200 ug/50 ul, 30 min before each immunization from the second week

GST-N19: GST fusion protein encoding the first 19 residues of mHRF; inhibitor of HRF/Ig interactions
Potency of inhibition of IgE binding relative to full-length HRF competitors (HRF/IgE binding): potency similar to that shown by GST-mHRF and mHRF-His6
Inhibition of IgE binding to immobilized GST-mHRF (HRF/IgE binding; competitor incubated 2 hours): inhibited
Inhibition of HRF/IgG binding (HRF/IgG binding): inhibited
Viability or proliferation [1]: did not affect
Live cells after induced apoptosis (CHO-K1 cells): not affected
Effects on mast cell growth and apoptosis (BMMCs): absence of GST-N19 effects
PCA (ear thickness) (WT mice; HRF-nonreactive IgE-induced PCA): insensitive
Acute reactions and LPR (ear thickness) (WT mice; HRF-reactive IgE-induced PCA, TNP26-BSA challenge): significantly reduced
Inflammatory cells, particularly eosinophils and neutrophils, in BAL fluids (C57BL/6 mice; 400 μg before every OVA challenge): reduced
Inflammatory cells and goblet cell hyperplasia in the lung (C57BL/6 mice; H&E and PAS staining): reduced
HRF in plasma (C57BL/6 mice; OVA-immunized/OVA-challenged mice): reduced
Airway inflammation (C57BL/6 mice; intranasal pretreatment before each OVA challenge): abrogated
Production of IL-5 in lung tissues (C57BL/6 mice; lung homogenates, ELISA): drastically decreased
Production of IL-13 in lung tissues (C57BL/6 mice; lung homogenates, ELISA): drastically decreased; also recorded: suppression
HRF-reactive IgG levels in plasma (C57BL/6 mice; mouse, in vivo): not affected
OVA-specific IgE levels in plasma (C57BL/6 mice; mouse, in vivo): not affected
OVA-specific IgG1 levels in plasma (C57BL/6 mice; mouse, in vivo): not affected
OVA-specific IgG2a levels in plasma (C57BL/6 mice; mouse, in vivo): not affected
Airway hyper-responsiveness (AHR) (C57BL/6 mice; response to methacholine): inhibited
Airway inflammation (mice): failed to inhibit; also recorded: does not inhibit
Airway inflammation (BALB/c mice): efficacy of GST-N19 was confirmed; also recorded: inhibits

— patent US10370438B2, “Histamine-releasing factor (HRF), HRF-receptor and methods of modulating inflammation” (LA JOLLA INSTITUTE FOR ALLERGY AND IMMUNOLOGY, priority 2010, dated 2019)
